Key:
[1] = system: barnyard grass; test: Test Example 3: herbicidal effect by foliage application, Wagner pot (Table 18, symbol H); assay type: in vivo, barnyard grass (Echinochloa crus-galli); conditions: amount of applied herbicide 320 g/ha
Summary of the method: (§1)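 Plants were sown in alluvial soil held under 0.1–0.5 cm standing water and grown 14 days in a greenhouse at 25–30 °C. An emulsifiable formulation, water-diluted to the set dose, was then sprayed onto the foliage, and effects were scored three weeks later using previously defined criteria.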

[2] = system: Chinese sprangletop; test: Test Example 3: herbicidal effect by foliage application, Wagner pot (Table 18, symbol D); assay type: in vivo, chinese sprangletop (Leptochloa chinensis); conditions: amount of applied herbicide 320 g/ha
Summary of the method: as §1

[3] = system: rice flat sedge; test: Test Example 3: herbicidal effect by foliage application, Wagner pot (Table 18, symbol E); assay type: in vivo, rice flat sedge (Cyperus iria); conditions: amount of applied herbicide 320 g/ha
Summary of the method: as §1

[4] = system: southern crabgrass; test: Test Example 5: herbicidal effect by foliage application, plastic box (Table 20, symbol F); assay type: in vivo, southern crabgrass (Digitaria ciliaris); conditions: foliage application, 320 g/ha, three weeks after application
Summary of the method: (§2)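 Sow seeds spot-wise in sterilized diluvial soil; cover with ~1.5 cm soil. Grow 14 days in greenhouse, 25° C. to 30° C. Spray foliage with emulsion diluted to predetermined amount. Rate effect after 3 weeks.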

[5] = system: green foxtail; test: Test Example 5: herbicidal effect by foliage application, plastic box (Table 20, symbol G); assay type: in vivo, green foxtail (Setaria viridis); conditions: foliage application, 320 g/ha, three weeks after application
Summary of the method: as §2

[6] = system: barnyard grass; test: Test Example 5: herbicidal effect by foliage application, plastic box (Table 20, symbol H); assay type: in vivo, barnyard grass (Echinochloa crus-galli); conditions: foliage application, 320 g/ha, three weeks after application
Summary of the method: as §2

[7] = system: wild oat; test: Test Example 5: herbicidal effect by foliage application, plastic box (Table 20, symbol I); assay type: in vivo, wild oat (Avena fatua); conditions: foliage application, 320 g/ha, three weeks after application
Summary of the method: as §2

[8] = system: blackgrass; test: Test Example 5: herbicidal effect by foliage application, plastic box (Table 20, symbol J); assay type: in vivo, blackgrass (Alopecurus myosuroides); conditions: foliage application, 320 g/ha, three weeks after application
Summary of the method: as §2

[9] = system: Italian ryegrass; test: Test Example 5: herbicidal effect by foliage application, plastic box (Table 20, symbol K); assay type: in vivo, Italian ryegrass (Lolium multiflorum); conditions: foliage application, 320 g/ha, three weeks after application
Summary of the method: as §2

[10] = system: windgrass; test: Test Example 5: herbicidal effect by foliage application, plastic box (Table 20, symbol L); assay type: in vivo, windgrass (Apera spica-venti); conditions: foliage application, 320 g/ha, three weeks after application
Summary of the method: as §2

[11] = system: velvetleaf; test: Test Example 5: herbicidal effect by foliage application, plastic box (Table 20, symbol M); assay type: in vivo, velvetleaf (Abutilon theophrasti); conditions: foliage application, 320 g/ha, three weeks after application
Summary of the method: as §2

[12] = system: redroot pigweed; test: Test Example 5: herbicidal effect by foliage application, plastic box (Table 20, symbol N); assay type: in vivo, redroot pigweed (Amaranthus retroflexus); conditions: foliage application, 320 g/ha, three weeks after application
Summary of the method: as §2

[13] = system: lambsquarters; test: Test Example 5: herbicidal effect by foliage application, plastic box (Table 20, symbol O); assay type: in vivo, lambsquarters (Chenopodium album); conditions: foliage application, 320 g/ha, three weeks after application
Summary of the method: as §2

[14] = system: chickweed; test: Test Example 5: herbicidal effect by foliage application, plastic box (Table 20, symbol P); assay type: in vivo, common chickweed (Stellaria media); conditions: foliage application, 320 g/ha, three weeks after application
Summary of the method: as §2

[15] = system: persian speedwell; test: Test Example 5: herbicidal effect by foliage application, plastic box (Table 20, symbol R); assay type: in vivo, Persian speedwell (Veronica persica); conditions: foliage application, 320 g/ha, three weeks after application
Summary of the method: as §2

COc1ccccc1-c1sc2ccc(F)cc2c1-c1c(O)c(C)nn(Cc2ccccc2)c1=O [2-438]
herbicidal effect on H: barnyard grass [1]: 2 (Herbicidal rate of 20% or more and less than 40%)
herbicidal effect on D: Chinese sprangletop [2]: 0 (Herbicidal rate of 5% or less (almost no effect))
herbicidal effect on E: rice flat sedge [3]: 2 (Herbicidal rate of 20% or more and less than 40%)
F: southern crabgrass, herbicidal effect grade [4]: 0 (Herbicidal rate of 5% or less (almost no effect))
G: green foxtail, herbicidal effect grade [5]: 0 (Herbicidal rate of 5% or less (almost no effect))
H: barnyard grass, herbicidal effect grade [6]: 0 (Herbicidal rate of 5% or less (almost no effect))
I: wild oat, herbicidal effect grade [7]: 0 (Herbicidal rate of 5% or less (almost no effect))
J: blackgrass, herbicidal effect grade [8]: 0 (Herbicidal rate of 5% or less (almost no effect))
K: Italian ryegrass, herbicidal effect grade [9]: 0 (Herbicidal rate of 5% or less (almost no effect))
L: windgrass, herbicidal effect grade [10]: 0 (Herbicidal rate of 5% or less (almost no effect))
M: velvetleaf, herbicidal effect grade [11]: 0 (Herbicidal rate of 5% or less (almost no effect))
N: redroot pigweed, herbicidal effect grade [12]: 3 (Herbicidal rate of 40% or more and less than 70%)
O: lambsquarters, herbicidal effect grade [13]: 0 (Herbicidal rate of 5% or less (almost no effect))
P: chickweed, herbicidal effect grade [14]: 0 (Herbicidal rate of 5% or less (almost no effect))
R: persian speedwell, herbicidal effect grade [15]: 0 (Herbicidal rate of 5% or less (almost no effect))

Cc1nn(C)c(=O)c(-c2c(-c3ccc(Oc4ncc(C(F)(F)F)cc4Cl)cc3)sc3ccc(F)cc23)c1O [2-467]
herbicidal effect on H: barnyard grass [1]: 3 (Herbicidal rate of 40% or more and less than 70%)
herbicidal effect on D: Chinese sprangletop [2]: 4 (Herbicidal rate of 70% or more and less than 90%)
herbicidal effect on E: rice flat sedge [3]: 4 (Herbicidal rate of 70% or more and less than 90%)
F: southern crabgrass, herbicidal effect grade [4]: 0 (Herbicidal rate of 5% or less (almost no effect))
G: green foxtail, herbicidal effect grade [5]: 2 (Herbicidal rate of 20% or more and less than 40%)
H: barnyard grass, herbicidal effect grade [6]: 1 (Herbicidal rate of 5% or more and less than 20%)
I: wild oat, herbicidal effect grade [7]: 0 (Herbicidal rate of 5% or less (almost no effect))
J: blackgrass, herbicidal effect grade [8]: 0 (Herbicidal rate of 5% or less (almost no effect))
K: Italian ryegrass, herbicidal effect grade [9]: 0 (Herbicidal rate of 5% or less (almost no effect))
L: windgrass, herbicidal effect grade [10]: 5 (Herbicidal rate of 90% or more (almost completely withered))
M: velvetleaf, herbicidal effect grade [11]: 1 (Herbicidal rate of 5% or more and less than 20%)
N: redroot pigweed, herbicidal effect grade [12]: 3 (Herbicidal rate of 40% or more and less than 70%)
O: lambsquarters, herbicidal effect grade [13]: 4 (Herbicidal rate of 70% or more and less than 90%)
P: chickweed, herbicidal effect grade [14]: 3 (Herbicidal rate of 40% or more and less than 70%)
R: persian speedwell, herbicidal effect grade [15]: 4 (Herbicidal rate of 70% or more and less than 90%)

COc1ccccc1-c1sc2cc(F)ccc2c1-c1c(OC(=O)c2ccccc2C)c(C)nn(C)c1=O [3-022]
herbicidal effect on H: barnyard grass [1]: 4 (Herbicidal rate of 70% or more and less than 90%)
herbicidal effect on D: Chinese sprangletop [2]: 2 (Herbicidal rate of 20% or more and less than 40%)
herbicidal effect on E: rice flat sedge [3]: 0 (Herbicidal rate of 5% or less (almost no effect))
F: southern crabgrass, herbicidal effect grade [4]: 0 (Herbicidal rate of 5% or less (almost no effect))
G: green foxtail, herbicidal effect grade [5]: 0 (Herbicidal rate of 5% or less (almost no effect))
H: barnyard grass, herbicidal effect grade [6]: 0 (Herbicidal rate of 5% or less (almost no effect))
I: wild oat, herbicidal effect grade [7]: 0 (Herbicidal rate of 5% or less (almost no effect))
J: blackgrass, herbicidal effect grade [8]: 0 (Herbicidal rate of 5% or less (almost no effect))
K: Italian ryegrass, herbicidal effect grade [9]: 0 (Herbicidal rate of 5% or less (almost no effect))
L: windgrass, herbicidal effect grade [10]: 0 (Herbicidal rate of 5% or less (almost no effect))
M: velvetleaf, herbicidal effect grade [11]: 0 (Herbicidal rate of 5% or less (almost no effect))
N: redroot pigweed, herbicidal effect grade [12]: 3 (Herbicidal rate of 40% or more and less than 70%)
O: lambsquarters, herbicidal effect grade [13]: 0 (Herbicidal rate of 5% or less (almost no effect))
P: chickweed, herbicidal effect grade [14]: 3 (Herbicidal rate of 40% or more and less than 70%)
R: persian speedwell, herbicidal effect grade [15]: 0 (Herbicidal rate of 5% or less (almost no effect))

Reference: patent US20230085307A1, “PYRIDAZINONE COMPOUND AND HERBICIDE” (NISSAN CHEMICAL CORPORATION, priority 2019, published 2023)
